This note sets out measurements from patent US9073942B2, “Antiviral compounds with a heterotricycle moiety” (Lupin Limited, priority 2012, dated 2015).

Assay [1] concerns bicistronic genotype 1b replicon in Huh 7.5 cells. Briefly: HCV replicon assay, genotype 1b (Huh7.5 Con1/SG-Neo(I)hRluc2aUb cell line, Renilla luciferase readout). The class given is cell-based. As to conditions: Hepatitis C virus, Huh7.5, 72 h, read-out: Gt1b IC50. The text has this: (§1) Anti-viral activity of the compounds of the invention was monitored using an HCV replicon assay. The Huh7.5 Con1/SG-Neo(I)hRluc2aUb cell line persistently expressing a bicistronic genotype 1b replicon in Huh 7.5 cells and the Huh7.5/J6/JFH1/EMCVIRES/hRlucNeo cell line expressing a bicistronic genotype 2a replicon in Huh 7.5 cells were obtained from Apath LLC. These cell lines were used to test inhibition of replicon levels by test compound using Renilla luciferase enzyme activity readout as a measure of viral replication efficiency.
(§2) Briefly, 7000-7500 cells were seeded in 96 well black clear bottom plates and allowed to adhere overnight. The next day each compound was added in triplicate to the cells at the desired concentration with a final DMSO concentration of 0.5%. Cells in media alone and cells incubated without drug with 0.5% DMSO served as controls. The plates were incubated for 72h at 37° C. prior to running the luciferase assay. Enzyme activity was measured using Renilla-Glo Luciferase Assay kit from Promega as per the manufacturer's instructions. The following equation was used to generate the percent inhibition value for each test concentration.
(§3) The IC50 value was determined using GraphPad Prism and the following equation: Y=Bottom+(Top−Bottom)(1+10^((Log IC50−X)*Hill slope))
(§4) IC50/values % inhibitions of compounds were determined 2-3 times in the replicon assays.
On the technique in general: A replicon is a self-replicating genome or part of one, used to study replication in cells.

The test system of assay [2] is bicistronic genotype 2a replicon in Huh 7.5 cells. In words: HCV replicon assay, genotype 2a (Huh7.5/J6/JFH1/EMCVIRES/hRlucNeo cell line, Renilla luciferase readout). The class given is cell-based. The note with it: Hepatitis C virus, Huh7.5, 72 h, read-out: Gt2a IC50.
From the text: as §1, §2, §3, §4

pIC50: −log10 of the molar value.

With `COC(=O)N[C@H](C(=O)N1CCC[C@H]1c1ncc(-c2ccc3c(c2)OCc2cc(-c4cnc([C@@H]5CCCN5C(=O)[C@@H](NC(=O)OC)C(C)C)[nH]4)sc2-3)[nH]1)C(C)C` [Compound 1, dimethyl((2S,2′S)-((2S,2′S)-2,2′-(5,5′-(4H-thieno[3,2-c]chromene-2,7-diyl)bis(1H-imidazole-5,2-diyl))bis(pyrrolidine-2,1-diyl))bis(3-methyl-1-oxobutane-2,1-diyl))dicarbamate], the pIC50 in assay [1] and in assay [2] was 9.00 to 12.00 in each case.
For the compound `COC(=O)N[C@H](C(=O)N1CCC[C@H]1c1ncc(-c2ccc3c(c2)OCCc2cc(-c4cnc([C@@H]5CCCN5C(=O)[C@@H](NC(=O)OC)C(C)C)[nH]4)sc2-3)[nH]1)C(C)C` [Compound 2, dimethyl((2S,2′S)-((2S,2′S)-2,2′-(5,5′-(4,5-dihydrobenzo[b]thieno[2,3-d]oxepine-2,8-diyl)bis(1H-imidazole-5,2-diyl))bis(pyrrolidine-2,1-diyl))bis(3-methyl-1-oxobutane-2,1-diyl))dicarbamate], the negative-log IC50 (pIC50) was 9.00 to 12.00 in assay [1] and 7.00 to 9.00 in assay [2].
For `COC(=O)N[C@H](C(=O)N1CCC[C@H]1c1nc(Cl)c(-c2ccc3c(c2)OCCc2cc(-c4[nH]c([C@@H]5CCCN5C(=O)[C@@H](NC(=O)OC)C(C)C)nc4Cl)sc2-3)[nH]1)C(C)C` [Compound 3, dimethyl((2S,2′S)-((2S,2′S)-2,2′-(5,5′-(4,5-dihydrobenzo[b]thieno[2,3-d]oxepine-2,8-diyl)bis(4-chloro-1H-imidazole-5,2-diyl))bis(pyrrolidine-2,1-diyl))bis(3-methyl-1-oxobutane-2,1-diyl))dicarbamate] the same measures were 9.00 to 12.00 and 7.00 to 9.00.
The like results for `COC(=O)N[C@H](C(=O)N1CCC[C@H]1c1ncc(-c2ccc3c(ccc4sc(-c5cnc([C@@H]6CCCN6C(=O)[C@@H](NC(=O)OC)C(C)C)[nH]5)nc43)c2)[nH]1)C(C)C` [Compound 4, dimethyl((2S,2′S)-((2S,2′S)-2,2′-(5,5′-(naphtho[1,2-d]thiazole-2,7-diyl)bis(1H-imidazole-5,2-diyl))bis(pyrrolidine-2,1-diyl))bis(3-methyl-1-oxobutane-2,1-diyl))dicarbamate] were, in that order, 9.00 to 12.00 and below 7.00.
For `COC(=O)N[C@H](C(=O)N1CCC[C@H]1c1ncc(-c2ccc3c(c2)CCc2cc(-c4cnc([C@@H]5CCCN5C(=O)[C@@H](NC(=O)OC)C(C)C)[nH]4)sc2-3)[nH]1)C(C)C` [Compound 5, dimethyl((2S,2′S)-((2S,2′S)-2,2′-(5,5′-(4,5-dihydronaphtho[1,2-b]thiophene-2,7-diyl)bis(1H-imidazole-5,2-diyl))bis(pyrrolidine-2,1-diyl))bis(3-methyl-1-oxobutane-2,1-diyl))dicarbamate] the same measures were 9.00 to 12.00 and 9.00 to 12.00.
Regarding `COC(=O)N[C@H](C(=O)N1CCC[C@H]1c1nc(Cl)c(-c2ccc3c(c2)CCc2c-3sc(-c3[nH]c([C@@H]4CCCN4C(=O)[C@@H](NC(=O)OC)C(C)C)nc3Cl)c2Cl)[nH]1)C(C)C` [Compound 6, dimethyl((2S,2′S)-((2S,2′S)-2,2′-(5,5′-(3-chloro-4,5-dihydronaphtho[1,2-b]thiophene-2,7-diyl)bis(4-chloro-1H-imidazole-5,2-diyl))bis(pyrrolidine-2,1-diyl))bis(3-methyl-1-oxobutane-2,1-diyl))dicarbamate], the pIC50 in assay [1] and in assay [2] was 9.00 to 12.00 each time.
`COC(=O)N[C@H](C(=O)N1CCC[C@H]1c1ncc(-c2ccc3c(ccc4cc(-c5cnc([C@@H]6CCCN6C(=O)[C@@H](NC(=O)OC)C(C)C)[nH]5)sc43)c2)[nH]1)C(C)C` [Compound 7, dimethyl((2S,2′S)-((2S,2′S)-2,2′-(5,5′-(naphtho[1,2-b]thiophene-2,7-diyl)bis(1H-imidazole-5,2-diyl))bis(pyrrolidine-2,1-diyl))bis(3-methyl-1-oxobutane-2,1-diyl))dicarbamate]: the negative logarithm of the IC50 (pIC50) in assay [1] and in assay [2] was 9.00 to 12.00 throughout.
As for `COC(=O)N[C@H](C(=O)N1CCC[C@H]1c1ncc(-c2ccc3c(c2)CCCc2cc(-c4cnc([C@@H]5CCCN5C(=O)[C@@H](NC(=O)OC)C(C)C)[nH]4)sc2-3)[nH]1)C(C)C` [Compound 8, dimethyl((2S,2′S)-((2S,2′S)-2,2′-(5,5′-(5,6-dihydro-4H-benzo[6,7]cyclohepta[1,2-b]thiophene-2,8-diyl)bis(1H-imidazole-5,2-diyl))bis(pyrrolidine-2,1-diyl))bis(3-methyl-1-oxobutane-2,1-diyl))dicarbamate], the pIC50 in assay [1] and in assay [2] was 9.00 to 12.00 throughout.
On to `COC(=O)N[C@H](C(=O)N1CCC[C@H]1c1nc(Cl)c(-c2ccc3c(c2)CCCc2cc(-c4[nH]c([C@@H]5CCCN5C(=O)[C@@H](NC(=O)OC)C(C)C)nc4Cl)sc2-3)[nH]1)C(C)C` [Compound 9, dimethyl((2S,2′S)-((2S,2′S)-2,2′-(5,5′-(5,6-dihydro-4H-benzo[6,7]cyclohepta[1,2-b]thiophene-2,8-diyl)bis(4-chloro-1H-imidazole-5,2-diyl))bis(pyrrolidine-2,1-diyl))bis(3-methyl-1-oxobutane-2,1-diyl))dicarbamate], for which the pIC50 in assay [1] and in assay [2] was 9.00 to 12.00 each time.
For the compound `COC(=O)N[C@H](C(=O)N1C(c2ncc(-c3ccc4c(ccc5cc(-c6cnc(C7[C@H]8CC[C@H](C8)N7C(=O)[C@@H](NC(=O)OC)C(C)C)[nH]6)sc54)c3)[nH]2)[C@H]2CC[C@@H]1C2)C(C)C` (stereo partly drawn) [Compound 10, dimethyl((2S,2′S)-((1R,1′R,3S,3′S,4S,4′S)-3,3′-(5,5′-(naphtho[1,2-b]thiophene-2,7-diyl)bis(1H-imidazole-5,2-diyl))bis(2-azabicyclo[2.2.1]heptane-3,2-diyl))bis(3-methyl-1-oxobutane-2,1-diyl))dicarbamate], the negative-log IC50 (pIC50) in assay [1] and in assay [2] was 9.00 to 12.00 in each case.
In the case of `COC(=O)N[C@H](C(=O)N1CCC[C@H]1c1ncc(-c2ccc3c(ccc4cc(-c5cnc([C@@H]6[C@H]7CC[C@H](C7)N6C(=O)[C@@H](NC(=O)OC)C(C)C)[nH]5)sc43)c2)[nH]1)C(C)C` [Compound 11, methyl((S)-1-((S)-2-(5-(2-(2-((1R,3S,4S)-2-((S)-2-(methoxycarbonyl)amino-3-methylbutanoyl)-2-azabicyclo[2.2.1]heptan-3-yl)-1H-imidazol-5-yl)naphtho[1,2-b]thiophen-7-yl)-1H-imidazol-2-yl)pyrrolidin-1-yl)-3-methyl-1-oxobutan-2-yl)carbamate], the pIC50 in assay [1] and in assay [2] was 9.00 to 12.00 each time.

The pIC50 is the negative decadic logarithm of the IC50, by convention in mol/L.
